Results taken from PMC12122562, “Phase 1 studies of the indenoisoquinolines LMP776 and LMP744 in patients with solid tumors and lymphomas” (Cancer Chemotherapy and Pharmacology, 2025).
Several values for one entry are separate records, joined by “and”; a condition that tells them apart may be missing. Equal entries are not always repeated. Entries after “also recorded” stand apart in the source; their conditions may differ.

Tested on: patients with advanced, refractory solid tumors or lymphomas
Experiment: Phase 1 trial of LMP744 (NCT03030417): safety, MTD, adverse events (CTCAE v4.03/v5.0)
Format: in vivo, human
Source text: The primary objectives of each study included establishing safety, tolerability, MTD, and recommended phase 2 dose (RP2D) of LMP776 and LMP744 as single agents. The LMP744 study included evaluation of tumor pharmacodynamics as an exploratory objective. Both trials were opened at the National Cancer Institute’s (NCI) Developmental Therapeutics Clinic, and the LMP744 trial was also opened at the University of Pittsburgh Hillman Cancer Center. Both trials used an accelerated dose escalation designs (Simon design 4 for LMP776, Simon design 3 for LMP744) to determine the MTD [30]. Dose levels are listed in Supplementary Table 1. Once the MTD was determined, additional patients were enrolled at that DL in an expansion cohort to evaluate pharmacodynamic changes as described below. LMP776 and LMP744 were administered intravenously through a central line via a 1-h infusion on days 1–5 (QDx5) in 28-day cycles. Both agents were supplied by the NCI Division of Cancer Treatment and Diagnosis (DCTD). The studies were approved by the NIH Institutional Review Board and conducted in accordance with the Declaration of Helsinki.
Patients were enrolled in either NCT01051635 evaluating LMP776 or NCT03030417 evaluating LMP744; these trials were conducted sequentially. Both trials required that patients be ≥ 18 years of age with solid tumors or lymphomas refractory to other treatments. Patients were required to have adequate performance status (Eastern Cooperative Oncology Group [ECOG] performance status ≤ 2), bone marrow function, and organ function as described in the Supplementary Methods. Patients in expansion phases at the MTD were required to have disease amenable to biopsy collection and be willing to undergo research biopsies. All patients provided written informed consent.
Tumor responses were evaluated by serial CT scans according to RECIST v1.1 criteria. CT scans were performed every other cycle during the first year, then every 3 cycles after the first year. Toxicities associated with LMP776 were evaluated according to criteria specified in CTCAE version 4.0; toxicities associated with LMP744 were evaluated according to the criteria specified in CTCAE version 4.03 (on or before March 31, 2018) or version 5.0 (on or after April 1, 2018). Criteria for all versions can be found at https://ctep.cancer.gov/protocolDevelopment/electronic_applications/ctc.htm. Any patient who received a dose of either agent was considered eligible for toxicity evaluation.

[1] = all DLs, highest grade per patient

COc1cc2c3c(n(CCCNCCO)c(=O)c2cc1OC)-c1cc2c(cc1C3=O)OCO2 [LMP744]
Grade 3 non-hematologic DLTs (DL7 (260 mg/m^2/day)): elevated ALT, AST, and GGT in one patient; also recorded: nausea, vomiting, and dehydration
Maximum tolerated dose (MTD) (IV QDx5, 28-day cycles (DL6)): 190 mg/m^2/day
Anemia, grade ≥ 2, prevalence (across all DLs): 36%
Fatigue, grade ≥ 2, prevalence (across all DLs): 22%
Lymphopenia, grade ≥ 2, prevalence (across all DLs): 39%
Alanine aminotransferase increased, grade ≥ 2, Total (%) (all DLs): 2 (6)
Alkaline phosphatase increased, grade ≥ 2, Total (%) (all DLs): 3 (9)
Anorexia, grade ≥ 2, Total (%) (all DLs): 2 (6)
Aspartate aminotransferase increased, grade ≥ 2, Total (%) (all DLs): 2 (6)
Blood bilirubin increased, grade ≥ 2, Total (%) (all DLs): 2 (6)
Constipation, grade ≥ 2, Total (%) (all DLs): 1 (3)
Creatinine increased, grade ≥ 2, Total (%) (all DLs): 5 (14)
Dehydration, grade ≥ 2, Total (%) (all DLs): 4 (11)
Diarrhea, grade ≥ 2, Total (%) (all DLs): 1 (3)
Dry skin, grade ≥ 2, Total (%) (all DLs): 1 (3)
Edema - limbs, grade ≥ 2, Total (%) (all DLs): 1 (3)
Febrile Neutropenia, grade ≥ 2, Total (%) (all DLs): 1 (3)
GGT increased, grade ≥ 2, Total (%) (all DLs): 6 (17)
Hyperglycemia, grade ≥ 2, Total (%) (all DLs): 1 (3)
Hypoalbuminemia, grade ≥ 2, Total (%) (all DLs): 1 (3)
Hypokalemia, grade ≥ 2, Total (%) (all DLs): 2 (6)
Hypomagnesemia, grade ≥ 2, Total (%) (all DLs): 2 (6)
Hyponatremia, grade ≥ 2, Total (%) (all DLs): 1 (3)
Hypophosphatemia, grade ≥ 2, Total (%) (all DLs): 6 (17)
Hypothyroidism, grade ≥ 2, Total (%) (all DLs): 1 (3)
Hypoxia, grade ≥ 2, Total (%) (all DLs): 1 (3)
INR increased, grade ≥ 2, Total (%) (all DLs): 1 (3)
Infections and infestations - NOS, grade ≥ 2, Total (%) (all DLs): 2 (6)
Infusion site extravasation, grade ≥ 2, Total (%) (all DLs): 1 (3)
Leukopenia (White blood cell count decreased), grade ≥ 2, Total (%) (all DLs): 5 (14)
Nausea, grade ≥ 2, Total (%) (all DLs): 6 (17)
Neutropenia, grade ≥ 2, Total (%) (all DLs): 5 (14)
Pain - biopsy site, grade ≥ 2, Total (%) (all DLs): 1 (3)
Platelet count decreased, grade ≥ 2, Total (%) (all DLs): 2 (6)
Proteinuria, grade ≥ 2, Total (%) (all DLs): 2 (6)
Sudden death - NOS, Total (%) (all DLs): 1 (3)
Thrombophlebitis - superficial, grade ≥ 2, Total (%) (all DLs): 1 (3)
Urinary tract infection, grade ≥ 2, Total (%) (all DLs): 1 (3)
Vomiting, grade ≥ 2, Total (%) (all DLs): 6 (17)
Weight loss, grade ≥ 2, Total (%) (all DLs): 4 (11)
White blood cell count increased, grade ≥ 2, Total (%) (all DLs): 1 (3)
Anemia, grade ≥ 2, Total (%) [1]: 13 (37) and 13 (36)
Fatigue, grade ≥ 2, Total (%) [1]: 8 (23) and 8 (22)
Patients requiring dose reductions (enrolled at DL6 (n = 6) or DL7 (n = 5)): Eleven
Alanine aminotransferase increased, patients (grade 2, DL1-DL5): 1
Alkaline phosphatase increased, patients (grade 2, DL1-DL5): 1
Anemia, patients (grade 2, DL1-DL5): 2
Edema - limbs, patients (grade 2, DL1-DL5): 1
GGT increased, patients (grade 2, DL1-DL5): 1
Hypophosphatemia, patients (grade 2, DL1-DL5): 1
Proteinuria, patients (grade 2, DL1-DL5): 1
Vomiting, patients (grade 2, DL1-DL5): 1
Lymphopenia (Lymphocyte count decreased), patients (grade 2, DL1-DL5 (n = 7)): 1
Alanine aminotransferase increased, patients (grade 2, DL6): 1
Alkaline phosphatase increased, patients (grade 2, DL6): 1
Anemia, patients (grade 2, DL6): 4
Anorexia, patients (grade 2, DL6): 1
Aspartate aminotransferase increased, patients (grade 2, DL6): 1
Blood bilirubin increased, patients (grade 2, DL6): 1
Constipation, patients (grade 2, DL6): 1
Creatinine increased, patients (grade 2, DL6): 3
Dehydration, patients (grade 2, DL6): 1
Diarrhea, patients (grade 2, DL6): 1
Dry skin, patients (grade 2, DL6): 1
Fatigue, patients (grade 2, DL6): 6
GGT increased, patients (grade 2, DL6): 3
Hyperglycemia, patients (grade 2, DL6): 1
Hypoalbuminemia, patients (grade 2, DL6): 1
Hypomagnesemia, patients (grade 2, DL6): 1
Hyponatremia, patients (grade 2, DL6): 1
Hypophosphatemia, patients (grade 2, DL6): 4
Hypothyroidism, patients (grade 2, DL6): 1
Infections and infestations - NOS, patients (grade 2, DL6): 2
Infusion site extravasation, patients (grade 2, DL6): 1
Leukopenia (White blood cell count decreased), patients (grade 2, DL6): 3
Nausea, patients (grade 2, DL6): 3
Neutropenia, patients (grade 2, DL6): 3
Pain - biopsy site, patients (grade 2, DL6): 1
Platelet count decreased, patients (grade 2, DL6): 1
Proteinuria, patients (grade 2, DL6): 1
Thrombophlebitis - superficial, patients (grade 2, DL6): 1
Urinary tract infection, patients (grade 2, DL6): 1
Vomiting, patients (grade 2, DL6): 4
Weight loss, patients (grade 2, DL6): 4
White blood cell count increased, patients (grade 2, DL6): 1
Lymphopenia (Lymphocyte count decreased), patients (grade 2, DL6 (n = 18; suppl. n=17)): 1
Alkaline phosphatase increased, patients (grade 2, DL7): 1
Anemia, patients (grade 2, DL7): 7
Anorexia, patients (grade 2, DL7): 1
Blood bilirubin increased, patients (grade 2, DL7): 1
Creatinine increased, patients (grade 2, DL7): 2
Dehydration, patients (grade 2, DL7): 1
Fatigue, patients (grade 2, DL7): 2
Hypomagnesemia, patients (grade 2, DL7): 1
Hypophosphatemia, patients (grade 2, DL7): 1
INR increased, patients (grade 2, DL7): 1
Leukopenia (White blood cell count decreased), patients (grade 2, DL7): 1
Nausea, patients (grade 2, DL7): 1
Platelet count decreased, patients (grade 2, DL7): 1
Vomiting, patients (grade 2, DL7): 1
Lymphopenia (Lymphocyte count decreased), patients (grade 2, DL7 (n = 11)): 4
Alanine aminotransferase increased, patients (grade 2, all DLs (n=35)): 2
Alkaline phosphatase increased, patients (grade 2, all DLs (n=35)): 3
Anemia, patients (grade 2, all DLs (n=35)): 13
Anorexia, patients (grade 2, all DLs (n=35)): 2
Aspartate aminotransferase increased, patients (grade 2, all DLs (n=35)): 1
Blood bilirubin increased, patients (grade 2, all DLs (n=35)): 2
Constipation, patients (grade 2, all DLs (n=35)): 1
Creatinine increased, patients (grade 2, all DLs (n=35)): 5
Dehydration, patients (grade 2, all DLs (n=35)): 2
Diarrhea, patients (grade 2, all DLs (n=35)): 1
Dry skin, patients (grade 2, all DLs (n=35)): 1
Edema - limbs, patients (grade 2, all DLs (n=35)): 1
Fatigue, patients (grade 2, all DLs (n=35)): 8
GGT increased, patients (grade 2, all DLs (n=35)): 4
Hyperglycemia, patients (grade 2, all DLs (n=35)): 1
Hypoalbuminemia, patients (grade 2, all DLs (n=35)): 1
Hypomagnesemia, patients (grade 2, all DLs (n=35)): 2
Hyponatremia, patients (grade 2, all DLs (n=35)): 1
Hypophosphatemia, patients (grade 2, all DLs (n=35)): 6
Hypothyroidism, patients (grade 2, all DLs (n=35)): 1
INR increased, patients (grade 2, all DLs (n=35)): 1
Infections and infestations - NOS, patients (grade 2, all DLs (n=35)): 2
Infusion site extravasation, patients (grade 2, all DLs (n=35)): 1
Lymphocyte count decreased, patients (grade 2, all DLs (n=35)): 6
Nausea, patients (grade 2, all DLs (n=35)): 4
Neutropenia, patients (grade 2, all DLs (n=35)): 3
Platelet count decreased, patients (grade 2, all DLs (n=35)): 3
Proteinuria, patients (grade 2, all DLs (n=35)): 2
Thrombophlebitis - superficial, patients (grade 2, all DLs (n=35)): 1
Urinary tract infection, patients (grade 2, all DLs (n=35)): 1
Vomiting, patients (grade 2, all DLs (n=35)): 6
Weight loss, patients (grade 2, all DLs (n=35)): 4
White blood cell count decreased, patients (grade 2, all DLs (n=35)): 4
White blood cell count increased, patients (grade 2, all DLs (n=35)): 1
Dehydration, patients (grade 3, DL6): 1
Febrile Neutropenia, patients (grade 3, DL6): 1
GGT increased, patients (grade 3, DL6): 1
Hypokalemia, patients (grade 3, DL6): 1
Hypoxia, patients (grade 3, DL6): 1
Lymphopenia (Lymphocyte count decreased), patients (grade 3, DL6): 5
Nausea, patients (grade 3, DL6): 1
Neutropenia, patients (grade 3, DL6): 1
Aspartate aminotransferase increased, patients (grade 3, DL7): 1
Dehydration, patients (grade 3, DL7): 1
GGT increased, patients (grade 3, DL7): 1
Hypokalemia, patients (grade 3, DL7): 1
Lymphopenia (Lymphocyte count decreased), patients (grade 3, DL7): 2
Nausea, patients (grade 3, DL7): 1
Aspartate aminotransferase increased, patients (grade 3, all DLs (n=35)): 1
Dehydration, patients (grade 3, all DLs (n=35)): 1
Febrile Neutropenia, patients (grade 3, all DLs (n=35)): 1
GGT increased, patients (grade 3, all DLs (n=35)): 2
Hypokalemia, patients (grade 3, all DLs (n=35)): 2
Hypoxia, patients (grade 3, all DLs (n=35)): 1
Lymphocyte count decreased, patients (grade 3, all DLs (n=35)): 7
Nausea, patients (grade 3, all DLs (n=35)): 2
Neutropenia, patients (grade 3, all DLs (n=35)): 1
Leukopenia (White blood cell count decreased), patients (grade 4, DL6): 1
Lymphopenia (Lymphocyte count decreased), patients (grade 4, DL6): 1
Neutropenia, patients (grade 4, DL6): 1
Lymphocyte count decreased, patients (grade 4, all DLs (n=35)): 1
Neutropenia, patients (grade 4, all DLs (n=35)): 1
White blood cell count decreased, patients (grade 4, all DLs (n=35)): 1
Sudden death - NOS, patients (grade 5, DL7): 1
Death considered possibly related to treatment (one patient, DL7): grade 5 sudden death – NOS; also recorded: died of a pulmonary embolism
